From article PMC6193938, “Characterization of a novel AICARFT inhibitor which potently elevates ZMP and has anti-tumor activity in murine models” (Scientific Reports, 2018)

How the values were obtained:
AKT1 = target: T1, AKT1 (Homo sapiens, UniProt P31749); experiment: CEREP protein kinase assay; type: biochemical
T1 construct: purchased CEREP Panlabs (Eurofins)

SGK1 = target: T2, SGK1 (Homo sapiens, UniProt O00141); experiment: CEREP protein kinase assay; type: biochemical
T2 construct: purchased CEREP Panlabs (Eurofins)
T2 sequence (O00141 1-431): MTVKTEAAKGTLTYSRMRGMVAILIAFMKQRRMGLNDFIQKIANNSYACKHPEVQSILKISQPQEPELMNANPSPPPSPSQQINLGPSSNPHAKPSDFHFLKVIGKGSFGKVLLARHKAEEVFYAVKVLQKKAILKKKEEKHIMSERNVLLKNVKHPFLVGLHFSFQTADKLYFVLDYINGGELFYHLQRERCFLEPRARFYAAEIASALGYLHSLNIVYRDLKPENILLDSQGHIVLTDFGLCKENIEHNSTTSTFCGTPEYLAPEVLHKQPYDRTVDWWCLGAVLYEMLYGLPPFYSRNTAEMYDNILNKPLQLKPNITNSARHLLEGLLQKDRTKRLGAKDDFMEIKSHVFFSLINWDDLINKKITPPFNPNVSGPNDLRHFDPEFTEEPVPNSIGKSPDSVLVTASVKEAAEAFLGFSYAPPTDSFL

A9 tumor = experiment: Antitumor efficacy and tumor metabolites, A9 tumor model; type: in vivo, mouse; conditions: A9 tumors
PKCb2 = target: T3, PKCb2 (Homo sapiens, UniProt P05771); experiment: CEREP protein kinase assay; type: biochemical
T3 construct: purchased CEREP Panlabs (Eurofins)
T3 sequence (P05771 1-673 isoform P05771-2): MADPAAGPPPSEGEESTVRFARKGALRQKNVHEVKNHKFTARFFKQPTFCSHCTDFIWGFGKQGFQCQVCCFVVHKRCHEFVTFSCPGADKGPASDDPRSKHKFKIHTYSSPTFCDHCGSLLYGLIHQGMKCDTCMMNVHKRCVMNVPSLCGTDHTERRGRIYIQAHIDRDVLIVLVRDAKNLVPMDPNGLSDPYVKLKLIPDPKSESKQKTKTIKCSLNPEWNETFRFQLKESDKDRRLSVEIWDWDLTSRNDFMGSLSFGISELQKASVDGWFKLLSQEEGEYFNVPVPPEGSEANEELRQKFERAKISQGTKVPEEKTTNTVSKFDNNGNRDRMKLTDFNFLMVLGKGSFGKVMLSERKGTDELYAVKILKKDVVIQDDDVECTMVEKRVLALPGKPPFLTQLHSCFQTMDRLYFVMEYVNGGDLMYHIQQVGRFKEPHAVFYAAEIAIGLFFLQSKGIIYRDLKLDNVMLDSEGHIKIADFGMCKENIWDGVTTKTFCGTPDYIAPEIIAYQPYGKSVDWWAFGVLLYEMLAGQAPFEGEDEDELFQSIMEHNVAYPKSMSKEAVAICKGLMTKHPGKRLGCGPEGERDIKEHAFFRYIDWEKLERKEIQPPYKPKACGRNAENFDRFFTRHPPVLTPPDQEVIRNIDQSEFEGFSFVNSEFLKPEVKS

A9 murine cell line = experiment: In vitro proliferation assay (Alamar Blue); type: cell-based
Procedure: Cells lines were acquired from cell banks, see supplemental material, grown using the cell banks recommended culture conditions (Supplemental Table 3). In some experiments noted “low folate” the cells were washed and grown in folate free RPMI-1640 media (Gibco #27016-021) supplemented with 5 ml 1 M Hepes, 5 ml 100 mM Na pyruvate, 2.5 mg/ml glucose and 10% defined FBS (Hyclone #SH30070) per 500 mL media for 5–7 days to deplete intracellular folate levels prior to the start of the experiment. Where noted, cells were maintained in complete “high folate” RPMI-1640 media (ATCC #30-2001) with 10% defined FBS to contrast with the low folate conditions.
Cells were cultured using recommended culture conditions unless noted otherwise (Supplemental Table 3). Cells were plated, dosed with compound and incubated at 37 °C for approximately 2 doubling times as determined for each cell line. Cell Titer Glo (Promega) assay was used to measure proliferation according to manufacturer’s recommendations by measuring luminescence with Flexstation3 (Molecular Devices) with 500 ms integration time. […]
For a limited number of cell lines, compound dosing was performed under high or low folate conditions with cell viability being determined with Alamar Blue rather than an ATP dependent assay. […] The % inhibition for each sample was calculated and fit as described above.

RSK3 = target: T4, RSK3 (Homo sapiens, UniProt Q15349); experiment: CEREP protein kinase assay; type: biochemical
T4 construct: purchased CEREP Panlabs (Eurofins)
T4 sequence (Q15349 whole entry): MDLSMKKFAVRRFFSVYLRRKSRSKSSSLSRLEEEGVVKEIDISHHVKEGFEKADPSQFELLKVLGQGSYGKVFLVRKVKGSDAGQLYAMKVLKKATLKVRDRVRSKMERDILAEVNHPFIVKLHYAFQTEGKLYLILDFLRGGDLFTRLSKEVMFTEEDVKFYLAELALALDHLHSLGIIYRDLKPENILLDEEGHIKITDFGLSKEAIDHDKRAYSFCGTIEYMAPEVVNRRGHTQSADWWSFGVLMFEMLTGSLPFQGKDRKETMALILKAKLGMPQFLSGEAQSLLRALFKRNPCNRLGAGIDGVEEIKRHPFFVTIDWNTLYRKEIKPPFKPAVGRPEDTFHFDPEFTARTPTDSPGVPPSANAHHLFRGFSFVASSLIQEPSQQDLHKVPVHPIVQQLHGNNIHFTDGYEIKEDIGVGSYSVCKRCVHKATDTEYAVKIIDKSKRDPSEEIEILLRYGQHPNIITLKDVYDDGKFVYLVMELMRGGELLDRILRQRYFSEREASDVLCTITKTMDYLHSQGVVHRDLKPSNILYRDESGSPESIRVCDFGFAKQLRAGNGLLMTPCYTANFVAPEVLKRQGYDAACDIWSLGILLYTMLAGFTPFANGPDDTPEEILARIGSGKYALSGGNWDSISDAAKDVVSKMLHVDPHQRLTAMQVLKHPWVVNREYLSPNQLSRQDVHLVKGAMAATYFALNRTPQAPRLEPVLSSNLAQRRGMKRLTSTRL

MNK2 = target: T5, MNK2 (Homo sapiens, UniProt Q9HBH9); experiment: CEREP protein kinase assay; type: biochemical
T5 construct: purchased CEREP Panlabs (Eurofins)
T5 sequence (Q9HBH9 whole entry): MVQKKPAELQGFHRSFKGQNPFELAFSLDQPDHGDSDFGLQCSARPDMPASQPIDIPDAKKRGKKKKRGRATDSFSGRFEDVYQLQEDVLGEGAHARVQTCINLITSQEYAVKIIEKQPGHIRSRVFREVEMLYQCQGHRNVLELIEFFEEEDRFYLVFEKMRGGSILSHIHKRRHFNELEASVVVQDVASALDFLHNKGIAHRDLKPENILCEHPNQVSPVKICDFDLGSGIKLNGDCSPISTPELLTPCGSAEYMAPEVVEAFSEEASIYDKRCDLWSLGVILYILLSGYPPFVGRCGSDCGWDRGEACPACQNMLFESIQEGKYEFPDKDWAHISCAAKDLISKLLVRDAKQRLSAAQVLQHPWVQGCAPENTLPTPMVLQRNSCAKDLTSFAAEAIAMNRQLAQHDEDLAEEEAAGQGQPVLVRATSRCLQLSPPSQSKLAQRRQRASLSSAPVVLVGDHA

[1] = test system: AMPK T172 phosphorylation in A9 tumors; experiment: Western analysis of tumors; type: in vivo, mouse; conditions: 100 mg/kg x12 PO
IKKe = target: T6, IKKe (Homo sapiens, UniProt Q14164); experiment: CEREP protein kinase assay; type: biochemical
T6 construct: purchased CEREP Panlabs (Eurofins)
T6 sequence (Q14164 1-716): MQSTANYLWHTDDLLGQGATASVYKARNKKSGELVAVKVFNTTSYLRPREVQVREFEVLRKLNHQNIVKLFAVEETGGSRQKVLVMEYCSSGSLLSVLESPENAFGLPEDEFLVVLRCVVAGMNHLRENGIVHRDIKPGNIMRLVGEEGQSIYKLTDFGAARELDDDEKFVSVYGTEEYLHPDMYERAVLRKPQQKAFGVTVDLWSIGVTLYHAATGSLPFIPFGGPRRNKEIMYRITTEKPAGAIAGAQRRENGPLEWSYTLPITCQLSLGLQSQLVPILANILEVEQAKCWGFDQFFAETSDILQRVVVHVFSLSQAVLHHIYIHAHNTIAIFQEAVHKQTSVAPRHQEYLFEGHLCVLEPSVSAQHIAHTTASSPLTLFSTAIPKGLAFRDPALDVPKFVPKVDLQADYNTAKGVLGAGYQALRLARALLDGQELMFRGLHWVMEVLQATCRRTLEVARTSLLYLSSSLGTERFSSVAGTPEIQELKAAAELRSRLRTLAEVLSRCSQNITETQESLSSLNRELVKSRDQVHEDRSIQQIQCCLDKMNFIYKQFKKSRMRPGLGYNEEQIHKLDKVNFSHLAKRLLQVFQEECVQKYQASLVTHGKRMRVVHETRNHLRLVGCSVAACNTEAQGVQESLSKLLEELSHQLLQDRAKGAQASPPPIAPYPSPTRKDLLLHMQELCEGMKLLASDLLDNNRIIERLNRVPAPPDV

PDGFRb = target: T7, PDGFRb (Homo sapiens, UniProt P09619); experiment: CEREP protein kinase assay; type: biochemical
T7 construct: purchased CEREP Panlabs (Eurofins)
T7 sequence (P09619 33-1106): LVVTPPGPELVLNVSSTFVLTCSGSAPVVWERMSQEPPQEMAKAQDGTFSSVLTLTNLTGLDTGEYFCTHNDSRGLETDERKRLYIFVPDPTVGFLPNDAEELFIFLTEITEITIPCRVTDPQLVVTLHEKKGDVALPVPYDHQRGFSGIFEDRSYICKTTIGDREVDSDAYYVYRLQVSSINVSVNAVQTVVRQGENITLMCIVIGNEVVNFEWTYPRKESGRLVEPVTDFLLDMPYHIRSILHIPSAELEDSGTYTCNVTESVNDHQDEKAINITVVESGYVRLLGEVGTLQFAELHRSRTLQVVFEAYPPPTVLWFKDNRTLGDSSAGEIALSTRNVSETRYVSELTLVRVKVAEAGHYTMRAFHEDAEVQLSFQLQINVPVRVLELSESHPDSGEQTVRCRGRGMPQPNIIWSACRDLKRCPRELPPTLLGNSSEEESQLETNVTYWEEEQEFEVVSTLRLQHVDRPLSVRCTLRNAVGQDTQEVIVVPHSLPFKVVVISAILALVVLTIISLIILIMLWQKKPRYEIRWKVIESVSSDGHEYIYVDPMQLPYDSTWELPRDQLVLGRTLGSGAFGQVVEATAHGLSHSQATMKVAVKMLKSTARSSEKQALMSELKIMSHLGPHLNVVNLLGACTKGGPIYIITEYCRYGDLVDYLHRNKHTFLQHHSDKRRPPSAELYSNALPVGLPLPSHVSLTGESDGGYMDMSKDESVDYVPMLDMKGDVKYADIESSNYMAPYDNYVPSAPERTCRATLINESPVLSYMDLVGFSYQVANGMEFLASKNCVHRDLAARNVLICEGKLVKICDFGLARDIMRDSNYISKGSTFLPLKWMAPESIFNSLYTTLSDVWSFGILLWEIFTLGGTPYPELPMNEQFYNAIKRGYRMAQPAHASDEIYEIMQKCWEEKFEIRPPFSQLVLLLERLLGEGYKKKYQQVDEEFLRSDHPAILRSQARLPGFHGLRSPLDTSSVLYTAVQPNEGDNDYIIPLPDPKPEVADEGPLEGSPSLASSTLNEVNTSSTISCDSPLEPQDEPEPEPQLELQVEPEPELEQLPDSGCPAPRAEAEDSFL

FLT4 = target: T8, FLT4 (Homo sapiens, UniProt P35916); experiment: CEREP protein kinase assay; type: biochemical
T8 construct: purchased CEREP Panlabs (Eurofins)

JAK1 = target: T9, JAK1 (Homo sapiens, UniProt P23458); experiment: CEREP protein kinase assay; type: biochemical
T9 construct: purchased CEREP Panlabs (Eurofins)
T9 sequence (P23458 whole entry): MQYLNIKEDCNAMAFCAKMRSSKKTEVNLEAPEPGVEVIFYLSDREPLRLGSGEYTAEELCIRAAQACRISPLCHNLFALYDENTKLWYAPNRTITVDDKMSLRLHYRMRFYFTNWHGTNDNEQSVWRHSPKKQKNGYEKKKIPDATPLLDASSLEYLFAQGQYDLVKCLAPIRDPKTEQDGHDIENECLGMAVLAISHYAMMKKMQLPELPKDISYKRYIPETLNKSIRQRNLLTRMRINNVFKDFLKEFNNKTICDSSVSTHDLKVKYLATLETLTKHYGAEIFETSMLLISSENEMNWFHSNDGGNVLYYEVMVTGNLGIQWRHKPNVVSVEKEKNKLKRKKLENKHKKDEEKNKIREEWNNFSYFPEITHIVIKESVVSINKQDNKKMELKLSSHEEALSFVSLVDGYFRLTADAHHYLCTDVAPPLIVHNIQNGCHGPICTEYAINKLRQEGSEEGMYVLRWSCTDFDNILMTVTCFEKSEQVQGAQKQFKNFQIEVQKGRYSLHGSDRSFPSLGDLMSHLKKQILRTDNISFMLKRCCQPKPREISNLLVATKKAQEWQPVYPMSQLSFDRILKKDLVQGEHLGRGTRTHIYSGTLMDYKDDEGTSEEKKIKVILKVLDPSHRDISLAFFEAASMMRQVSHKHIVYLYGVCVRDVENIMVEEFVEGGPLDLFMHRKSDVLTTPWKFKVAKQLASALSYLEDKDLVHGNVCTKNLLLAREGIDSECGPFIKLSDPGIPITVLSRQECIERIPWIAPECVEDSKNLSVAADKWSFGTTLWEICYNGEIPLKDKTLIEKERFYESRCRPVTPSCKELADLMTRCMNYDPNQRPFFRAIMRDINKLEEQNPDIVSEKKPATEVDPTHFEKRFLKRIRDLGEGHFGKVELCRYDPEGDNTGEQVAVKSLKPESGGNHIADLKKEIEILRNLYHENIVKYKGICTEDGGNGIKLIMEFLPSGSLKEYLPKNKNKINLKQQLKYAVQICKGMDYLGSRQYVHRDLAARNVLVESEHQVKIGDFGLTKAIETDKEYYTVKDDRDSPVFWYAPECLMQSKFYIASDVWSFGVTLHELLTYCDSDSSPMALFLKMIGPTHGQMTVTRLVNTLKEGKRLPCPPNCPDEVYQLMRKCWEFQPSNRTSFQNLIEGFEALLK

T1 sequence (P31749 whole entry): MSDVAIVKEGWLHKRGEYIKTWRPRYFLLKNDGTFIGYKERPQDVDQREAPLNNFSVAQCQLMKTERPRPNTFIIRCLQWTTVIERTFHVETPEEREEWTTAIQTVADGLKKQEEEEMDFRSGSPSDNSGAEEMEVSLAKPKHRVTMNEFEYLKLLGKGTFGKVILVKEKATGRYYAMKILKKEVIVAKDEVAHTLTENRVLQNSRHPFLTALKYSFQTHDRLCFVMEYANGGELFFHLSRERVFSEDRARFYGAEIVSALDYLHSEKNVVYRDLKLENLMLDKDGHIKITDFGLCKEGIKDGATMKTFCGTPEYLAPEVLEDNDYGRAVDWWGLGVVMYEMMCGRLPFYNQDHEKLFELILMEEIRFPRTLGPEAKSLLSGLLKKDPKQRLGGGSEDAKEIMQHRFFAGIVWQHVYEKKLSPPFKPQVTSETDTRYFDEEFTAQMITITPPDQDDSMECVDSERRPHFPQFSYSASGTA

O=c1[nH]ccc2cc(F)c(NS(=O)(=O)c3ccc(N4CC[C@@H](O)C4)s3)cc12 [LSN3213128, N-(6-Fluoro-1-oxo-1,2-dihydroisoquinolin-7-yl)-5-[(3R)-3-hydroxypyrrolidin-1-yl]thiophene-2-sulfonamide]
inhibition at 0.2 µM (AKT1; @ 0.2 uM): -1.76% | inhibition at 2 µM (AKT1; @ 2 uM): 5.52% | inhibition at 20 µM (AKT1; @ 20 uM): -6.9% | inhibition at 0.2 µM (SGK1; @ 0.2 uM): -4.06% | inhibition at 2 µM (SGK1; @ 2 uM): 7.54% | inhibition at 20 µM (SGK1; @ 20 uM): 17.3% | tumor dUMP (A9 tumor; 100 mg/kg QDx12 dose group): 0.72 ± 0.41 µM | tumor ZMP levels (A9 tumor; after 12 days of dosing, 100 mg/kg): dramatically elevated | inhibition at 0.2 µM (PKCb2; @ 0.2 uM): -3.72% | inhibition at 2 µM (PKCb2; @ 2 uM): -1.04% | inhibition at 20 µM (PKCb2; @ 20 uM): -3.76% | IC50 (A9 murine cell line; Mus musculus, RPMI media): 230 nM | anti-proliferative effect on hypoxanthine supplementation (A9 murine cell line; hypoxanthine): not reversed | inhibition at 0.2 µM (RSK3; @ 0.2 uM): -5.85% | inhibition at 2 µM (RSK3; @ 2 uM): -1.32% | inhibition at 20 µM (RSK3; @ 20 uM): 9.07% | inhibition at 0.2 µM (MNK2; @ 0.2 uM): -1.93% | inhibition at 2 µM (MNK2; @ 2 uM): 4.7% | inhibition at 20 µM (MNK2; @ 20 uM): 5.92% | AMPK T172 phosphorylation levels in vivo [1]: showed no change | inhibition at 0.2 µM (IKKe; @ 0.2 uM): -0.0712% | inhibition at 2 µM (IKKe; @ 2 uM): 8.91% | inhibition at 20 µM (IKKe; @ 20 uM): 11.7% | inhibition at 0.2 µM (PDGFRb; @ 0.2 uM): -85.9% | inhibition at 2 µM (PDGFRb; @ 2 uM): -63.2% | inhibition at 20 µM (PDGFRb; @ 20 uM): -71% | inhibition at 0.2 µM (FLT4; @ 0.2 uM): -9.28% | inhibition at 2 µM (FLT4; @ 2 uM): 6.53% | inhibition at 20 µM (FLT4; @ 20 uM): 70.5% | inhibition at 0.2 µM (JAK1; @ 0.2 uM): -1.48% | inhibition at 2 µM (JAK1; @ 2 uM): 5.53% | inhibition at 20 µM (JAK1; @ 20 uM): 46.6%
